The nature of the data set: circular dichroism titration in the presence of small unilamellar phospholipid vesicles. In kind it is physicochemical. Conditions: circular dichroism at 222 nanometers vs pH, DMPC small unilamellar vesicles. From the text: FIG. 5A is a graph showing the circular dichroism analysis of the synthetic polypeptide of FIG. 1 in the presence of dimyristoyl phosphatidylcholine (DMPC) vesicles at various pH values. The black squares indicate the initial titration (down). The open circles indicate the reverse titration (up). The open triangles indicate the second titration (down).
The well-known spectroscopic technique of polarized infrared linear dichroism is used to determine the orientation of the alpha-helical domain of the polypeptide. The orientation of the polypeptide in protein/phospholipid multilayers is inferred from the dichroism of two amide vibrations.
FIG. 5A is a graph showing circular dichroism titration of the synthetic polypeptide having the amino acid sequence set forth in FIG. 1 and sequence listing identification number 1, in the presence of a solution containing small unilamellar phospholipid vesicles made from synthetic dimyristoyl phosphatidylcholine. The y axis is millidegrees at 222 nanometers, and the x axis is pH. […] FIG. 5B is a corresponding control graph showing circular dichroism titration of the polypeptide in the […] of lipid molecules.

Residues, ends and D or L forms follow the SMILES beside them.

With `CC[C@H](C)[C@H](NC(=O)[C@@H]1CCCN1C(=O)[C@H](CC(N)=O)NC(=O)[C@H](CCC(N)=O)NC(=O)[C@H](CCC(=O)O)NC(=O)CNC(=O)CN)C(=O)N[C@@H](Cc1ccc(O)cc1)C(=O)N[C@@H](Cc1c[nH]c2ccccc12)C(=O)N[C@@H](C)C(=O)N[C@@H](CCCNC(=N)N)C(=O)N[C@@H](Cc1ccc(O)cc1)C(=O)N[C@@H](C)C(=O)N[C@@H](CC(=O)O)C(=O)N[C@@H](Cc1c[nH]c2ccccc12)C(=O)N[C@@H](CC(C)C)C(=O)N[C@@H](Cc1ccccc1)C(=O)N[C@H](C(=O)N[C@H](C(=O)N1CCC[C@H]1C(=O)N[C@@H](CC(C)C)C(=O)N[C@@H](CC(C)C)C(=O)N[C@@H](CC(C)C)C(=O)N[C@@H](CC(C)C)C(=O)N[C@@H](CC(=O)O)C(=O)N[C@@H](CC(C)C)C(=O)N[C@@H](C)C(=O)N[C@@H](CC(C)C)C(=O)N[C@@H](CC(C)C)C(=O)N[C@H](C(=O)N[C@@H](CC(=O)O)C(=O)N[C@@H](C)C(=O)N[C@@H](CC(=O)O)C(=O)N[C@@H](CCC(=O)O)C(=O)NCC(=O)N[C@H](C(=O)O)[C@@H](C)O)C(C)C)[C@@H](C)O)[C@@H](C)O` [synthetic polypeptide] (H-GGEQNPIYWARYADWLFTTPLLLLDLALLVDADEGT-OH), the “pKa of formation of a polypeptide alpha-helix” value is listed as 6.0.

The record behind these values is patent publication US5739273A, “Transmembrane polypeptide and methods of use” (Yale University, priority 1994, dated 1998).
